Measurements published in patent US20260226493A1, “HERBICIDE RESISTANT PLANTS” (SYNGENTA CROP PROTECTION AG, priority 2023, published 2026).

Assays:
Assay in all cases: BIO3-BIO1 mutant enzyme activity in the presence of herbicide, percentage inhibition (fluorometric DAPA assay)
Format in all cases: biochemical
Settings in all cases: read-out: percentage inhibition
[1] = biological target: T1, Arabidopsis thaliana BIO3-BIO1 (BioDA) mutants (Arabidopsis thaliana, UniProt B0F481, S509T)
T1 construct: with the predicted N-terminal mitochondrial transit peptide removed; 6xHis-tag (N); thrombin cleavage site (N); made in house; host or cells: E. coli BL21 (DE3) bioA
T1 sequence (B0F481 23-833 S509T): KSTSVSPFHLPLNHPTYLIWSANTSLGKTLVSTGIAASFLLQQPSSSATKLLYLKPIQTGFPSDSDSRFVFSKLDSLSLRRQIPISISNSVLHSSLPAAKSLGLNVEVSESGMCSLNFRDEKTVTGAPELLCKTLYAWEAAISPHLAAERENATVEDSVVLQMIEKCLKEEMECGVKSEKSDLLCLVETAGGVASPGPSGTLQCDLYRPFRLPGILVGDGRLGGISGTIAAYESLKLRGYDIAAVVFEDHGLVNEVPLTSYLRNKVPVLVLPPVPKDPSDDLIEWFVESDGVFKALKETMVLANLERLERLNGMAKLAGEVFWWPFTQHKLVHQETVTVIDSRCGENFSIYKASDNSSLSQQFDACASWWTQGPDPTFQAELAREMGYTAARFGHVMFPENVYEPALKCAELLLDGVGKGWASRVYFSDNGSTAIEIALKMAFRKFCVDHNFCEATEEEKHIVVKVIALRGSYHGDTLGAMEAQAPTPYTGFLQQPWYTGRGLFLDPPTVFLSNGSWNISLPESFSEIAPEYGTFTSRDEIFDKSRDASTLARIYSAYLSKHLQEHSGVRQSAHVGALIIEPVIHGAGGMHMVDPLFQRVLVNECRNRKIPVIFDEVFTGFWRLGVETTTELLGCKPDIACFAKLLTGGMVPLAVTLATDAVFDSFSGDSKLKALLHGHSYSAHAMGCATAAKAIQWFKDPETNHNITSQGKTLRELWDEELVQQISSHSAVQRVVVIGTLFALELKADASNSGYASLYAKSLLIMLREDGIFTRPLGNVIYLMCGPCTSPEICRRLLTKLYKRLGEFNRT
Method in brief: (§1)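 His-tagged Arabidopsis BIO3-BIO1 mutants, expressed in E. coli and purified by IMAC and SEC, were preincubated at 50 nM with herbicide for 10 min at 20 °C in EPPS pH 8.6 with pyridoxal phosphate. Reaction with 100 μM spermidine and 20 μM KAPA ran 75 min at 20 °C; DAPA was derivatised with o-phthalaldehyde and read at ex 410/em 470 nm. […].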

[2] = biological target: T2, Arabidopsis thaliana BIO3-BIO1 (BioDA) mutants (Arabidopsis thaliana, UniProt B0F481, T512G)
T2 construct: with the predicted N-terminal mitochondrial transit peptide removed; 6xHis-tag (N); thrombin cleavage site (N); made in house; host or cells: E. coli BL21 (DE3) bioA
T2 sequence (B0F481 23-833 T512G): as the sequence (B0F481 23-833 S509T) above, with T487S, T490G counted along it
Method in brief: as §1

[3] = biological target: T3, Arabidopsis thaliana BIO3-BIO1 (BioDA) mutants (Arabidopsis thaliana, UniProt B0F481, Y511R)
T3 construct: with the predicted N-terminal mitochondrial transit peptide removed; 6xHis-tag (N); thrombin cleavage site (N); made in house; host or cells: E. coli BL21 (DE3) bioA
T3 sequence (B0F481 23-833 Y511R): as the sequence (B0F481 23-833 S509T) above, with T487S, Y489R counted along it
Method in brief: as §1

[4] = biological target: T4, Arabidopsis thaliana BIO3-BIO1 (BioDA) mutants (Arabidopsis thaliana, UniProt B0F481, Q517W)
T4 construct: with the predicted N-terminal mitochondrial transit peptide removed; 6xHis-tag (N); thrombin cleavage site (N); made in house; host or cells: E. coli BL21 (DE3) bioA
T4 sequence (B0F481 23-833 Q517W): as the sequence (B0F481 23-833 S509T) above, with T487S, Q495W counted along it
Method in brief: as §1

[5] = biological target: T5, Arabidopsis thaliana BIO3-BIO1 (BioDA) mutants (Arabidopsis thaliana, UniProt B0F481, F348Q)
T5 construct: with the predicted N-terminal mitochondrial transit peptide removed; 6xHis-tag (N); thrombin cleavage site (N); made in house; host or cells: E. coli BL21 (DE3) bioA
T5 sequence (B0F481 23-833 F348Q): as the sequence (B0F481 23-833 S509T) above, with F326Q, T487S counted along it
Method in brief: as §1

[6] = biological target: T6, Arabidopsis thaliana BIO3-BIO1 (BioDA) mutants (Arabidopsis thaliana, UniProt B0F481, F348S)
T6 construct: with the predicted N-terminal mitochondrial transit peptide removed; 6xHis-tag (N); thrombin cleavage site (N); made in house; host or cells: E. coli BL21 (DE3) bioA
T6 sequence (B0F481 23-833 F348S): as the sequence (B0F481 23-833 S509T) above, with F326S, T487S counted along it
Method in brief: as §1

[7] = biological target: T7, Arabidopsis thaliana BIO3-BIO1 (BioDA) mutants (Arabidopsis thaliana, UniProt B0F481, Y511W)
T7 construct: with the predicted N-terminal mitochondrial transit peptide removed; 6xHis-tag (N); thrombin cleavage site (N); made in house; host or cells: E. coli BL21 (DE3) bioA
T7 sequence (B0F481 23-833 Y511W): as the sequence (B0F481 23-833 S509T) above, with T487S, Y489W counted along it
Method in brief: as §1

[8] = biological target: T8, Arabidopsis thaliana BIO3-BIO1 (BioDA) mutants (Arabidopsis thaliana, UniProt B0F481, S509R)
T8 construct: with the predicted N-terminal mitochondrial transit peptide removed; 6xHis-tag (N); thrombin cleavage site (N); made in house; host or cells: E. coli BL21 (DE3) bioA
T8 sequence (B0F481 23-833 S509R): as the sequence (B0F481 23-833 S509T) above, with T487R counted along it
Method in brief: as §1

[9] = biological target: T9, Arabidopsis thaliana BIO3-BIO1 (BioDA) mutants (Arabidopsis thaliana, UniProt B0F481, F348A)
T9 construct: with the predicted N-terminal mitochondrial transit peptide removed; 6xHis-tag (N); thrombin cleavage site (N); made in house; host or cells: E. coli BL21 (DE3) bioA
T9 sequence (B0F481 23-833 F348A): as the sequence (B0F481 23-833 S509T) above, with F326A, T487S counted along it
Method in brief: as §1

[10] = biological target: T10, Arabidopsis thaliana BIO3-BIO1 (BioDA) mutants (Arabidopsis thaliana, UniProt B0F481, R790C)
T10 construct: with the predicted N-terminal mitochondrial transit peptide removed; 6xHis-tag (N); thrombin cleavage site (N); made in house; host or cells: E. coli BL21 (DE3) bioA
T10 sequence (B0F481 23-833 R790C): as the sequence (B0F481 23-833 S509T) above, with T487S, R768C counted along it
Method in brief: as §1

[11] = biological target: T11, Arabidopsis thaliana BIO3-BIO1 (BioDA) mutants (Arabidopsis thaliana, UniProt B0F481, W391M)
T11 construct: with the predicted N-terminal mitochondrial transit peptide removed; 6xHis-tag (N); thrombin cleavage site (N); made in house; host or cells: E. coli BL21 (DE3) bioA
T11 sequence (B0F481 23-833 W391M): as the sequence (B0F481 23-833 S509T) above, with W369M, T487S counted along it
Method in brief: as §1

[12] = biological target: T12, Arabidopsis thaliana BIO3-BIO1 (BioDA) mutants (Arabidopsis thaliana, UniProt B0F481, Q517T)
T12 construct: with the predicted N-terminal mitochondrial transit peptide removed; 6xHis-tag (N); thrombin cleavage site (N); made in house; host or cells: E. coli BL21 (DE3) bioA
T12 sequence (B0F481 23-833 Q517T): as the sequence (B0F481 23-833 S509T) above, with T487S, Q495T counted along it
Method in brief: as §1

| SMILES | inhibition at 1 µM [1] [%] | inhibition at 1 µM [2] [%] | inhibition at 1 µM [3] [%] | inhibition at 1 µM [4] [%] | inhibition at 1 µM [5] [%] | inhibition at 1 µM [6] [%] | inhibition at 1 µM [7] [%] | inhibition at 1 µM [8] [%] | inhibition at 1 µM [9] [%] | inhibition at 1 µM [10] [%] | inhibition at 1 µM [11] [%] | inhibition at 1 µM [12] [%] | inhibition at 0.2 µM [1] [%] | inhibition at 5 µM [1] [%] | inhibition at 0.2 µM [2] [%] | inhibition at 5 µM [2] [%] | inhibition at 0.2 µM [3] [%] | inhibition at 5 µM [3] [%] | inhibition at 0.2 µM [4] [%] | inhibition at 5 µM [4] [%] | also measured |
| --- | --- | --- | --- | --- | --- | --- | --- | --- | --- | --- | --- | --- | --- | --- | --- | --- | --- | --- | --- | --- | --- |
| CCOC(=O)c1nn(-c2ccc3c(c2)OC(F)(F)C(F)(F)O3)c2cccc(C(C)=O)c2c1=O [Compound A, ethyl 5-acetyl-4-oxo-1-(2,2,3,3-tetrafluoro-1,4-benzodioxin-6-yl)cinnoline-3-carboxylate] | 77 | 5 | 46 | 9 | 7 | 3 | 57 | 15 | 4 | 2 | 85 | 46 | – | – | – | – | – | – | – | – | – |
| CCn1c(C)c(-c2ccc(F)cc2F)c(=O)c(C(=O)O)c1-c1ccc(Cl)c(Cl)c1 [Compound C, 2-(3,4-dichlorophenyl)-5-(2,4-difluorophenyl)-1-ethyl-6-methyl-4-oxo-pyridine-3-carboxylic acid] | 50 | 57 | 99 | 72 | 0 | 7 | 85 | 87 | 0 | 11 | 24 | 47 | 5 | 89 | 17 | 92 | 80 | 99 | 29 | 90 | inhibition at 0.2 µM [5]: 3%; inhibition at 5 µM [5]: 25%; inhibition at 0.2 µM [6]: 9%; inhibition at 5 µM [6]: 22%; inhibition at 0.2 µM [7]: 41%; inhibition at 5 µM [7]: 97%; inhibition at 0.2 µM [8]: 42%; inhibition at 5 µM [8]: 98%; inhibition at 0.2 µM [9]: 7%; inhibition at 5 µM [9]: 1%; inhibition at 0.2 µM [10]: 0%; inhibition at 5 µM [10]: 62%; inhibition at 0.2 µM [11]: 39%; inhibition at 5 µM [11]: 63%; inhibition at 0.2 µM [12]: 14%; inhibition at 5 µM [12]: 73% |
| CCn1c(Cn2ccc(C(F)(F)F)n2)cc(=O)c(C(=O)O)c1-c1ccc(Cl)c(Cl)c1 [Compound L, 2-(3,4-dichlorophenyl)-1-ethyl-4-oxo-6-[[3-(trifluoromethyl)pyrazol-1-yl]methyl]pyridine-3-carboxylic acid] | – | – | – | – | – | – | – | – | – | – | – | – | – | – | – | – | – | – | – | – | inhibition at 0.01 µM [5]: 0%; inhibition at 0.075 µM [5]: 0%; inhibition at 0.5 µM [5]: 3%; inhibition at 0.01 µM [6]: 7%; inhibition at 0.075 µM [6]: 3%; inhibition at 0.5 µM [6]: 32%; inhibition at 0.01 µM [9]: 1%; inhibition at 0.075 µM [9]: 0%; inhibition at 0.5 µM [9]: 3% |
| CCn1c(-c2ccc(Cl)c(Cl)c2)c(C(=O)O)c(=O)c2cc(F)ccc21 [Compound M, 2-(3,4-dichlorophenyl)-1-ethyl-6-fluoro-4-oxo-quinoline-3-carboxylic acid] | 69 | 39 | 96 | 51 | 0 | 4 | 67 | 82 | 0 | 9 | 37 | 39 | 9 | 95 | 9 | 77 | 74 | 99 | 26 | 79 | inhibition at 0.2 µM [5]: 0%; inhibition at 5 µM [5]: 16%; inhibition at 0.2 µM [6]: 6%; inhibition at 5 µM [6]: 25%; inhibition at 0.2 µM [7]: 25%; inhibition at 5 µM [7]: 90%; inhibition at 0.2 µM [8]: 48%; inhibition at 5 µM [8]: 96%; inhibition at 0.2 µM [9]: 0%; inhibition at 5 µM [9]: 6%; inhibition at 0.2 µM [10]: 0%; inhibition at 5 µM [10]: 49%; inhibition at 0.2 µM [11]: 27%; inhibition at 5 µM [11]: 84%; inhibition at 0.2 µM [12]: 14%; inhibition at 5 µM [12]: 71% |
